Measurements published in patent publication US20070060550A1, “Methods of determining compounds useful in the treatment of bipolar disorder and methods of treating such disorders” (priority 2005, published 2007).

Key:
prolyl oligopeptidase = biological target: T1, prolyl oligopeptidase (Homo sapiens, UniProt P48147); experiment: prolyl oligopeptidase fluorogenic enzyme assay (Z-Gly-Pro-aminomethyl coumarin); assay type: biochemical; settings: for effect on prolyl oligopeptidase proteolytic activity: FIG. 9
T1 construct: poly-histidine; made in house; host or cells: E. coli
T1 sequence (P48147 1-710): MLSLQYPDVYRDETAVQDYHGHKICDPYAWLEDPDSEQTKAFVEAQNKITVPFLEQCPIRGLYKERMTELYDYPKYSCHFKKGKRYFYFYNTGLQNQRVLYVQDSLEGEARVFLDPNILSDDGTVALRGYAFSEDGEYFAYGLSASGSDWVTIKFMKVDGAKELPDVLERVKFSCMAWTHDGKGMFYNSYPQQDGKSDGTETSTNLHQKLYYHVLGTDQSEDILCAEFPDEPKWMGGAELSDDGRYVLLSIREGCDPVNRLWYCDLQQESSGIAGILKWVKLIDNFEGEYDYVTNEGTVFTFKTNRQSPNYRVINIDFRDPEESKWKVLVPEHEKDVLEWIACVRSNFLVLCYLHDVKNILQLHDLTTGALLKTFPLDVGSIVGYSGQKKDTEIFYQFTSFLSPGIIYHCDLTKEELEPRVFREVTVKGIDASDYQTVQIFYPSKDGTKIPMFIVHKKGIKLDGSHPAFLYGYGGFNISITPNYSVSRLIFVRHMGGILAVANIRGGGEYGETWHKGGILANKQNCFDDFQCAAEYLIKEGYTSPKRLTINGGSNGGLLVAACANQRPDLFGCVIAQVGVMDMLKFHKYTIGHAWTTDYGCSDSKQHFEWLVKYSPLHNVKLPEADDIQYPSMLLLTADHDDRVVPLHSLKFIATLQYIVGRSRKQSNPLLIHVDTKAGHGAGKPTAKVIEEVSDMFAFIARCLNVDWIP
Description: For inhibitors of the enzymatic activity on the enzyme prolyl oligopeptidase, the relevant references for several assays can be found in Cheng et al., MCN 2005. Common assays use a peptide-based substrate which, when cleaved from a prorlyl bond, releases a fluorogenic signal that can be quantitated by spectrocopy.
Conveniently, the effect of the candidate compounds that inhibit enzyme activity can be assessed using a labeled substrate that is cleaved or otherwise modified by prolyl oligopeptidase to produce a detachable change such as release of a label. Thus, it is possible to screen candidate inhibitors by measuring the change in the signal from the label caused by the action of prolyl oligopeptidase in the presence and absence of a candidate inhibitor compound. A preferred substrate may be one in which a fluorescent label is employed, such as Z-Gly-Pro-aminomethyl coumarin.
Conveniently, prolyl oligopeptidase enzyme assays can be carried out using a standard fluorogenic assay with the synthetic substrate Z-Gly-Pro-aminomethyl coumarin obtained from Bachem, Switzerland. Recominant prolyl oligopeptidase was produced in E. coli transfected with cDNA encoding the human form of prolyl oligopeptidase cloned into a bacterial expression vector containing either an N-or a C-terminal poly-histidine tag in order to purify the expressed protein. cDNA encoding human […] can be obtained from the MRC's HGMP Resource Center, Hinxton Hall Cambridge, UK (Clone Image No. 3614248).

[1] = tested on: sensory neuron growth cones; settings: Williams et al., 2002; cited from earlier work
cortical neurons = experiment: 3H-CDP-DAG accumulation assay of PIns recycling in carbachol-stimulated neurons; assay type: cell-based
Description: PIns recycling that is limited by the supply of inositol can be assessed by loading cells with ^3H-cytidine, stimulating the cells with carbachol in the presence or absence of lithium, precipitating protein with trichloracetic acid, and then determining how much ^3H accumulates as ^3H-CDP-DAG in the lipid membrane compartment, which can be extracted with chloroform. […] Compounds specifically for this purpose may be designed by a number of computer programs suitable for this purpose.
A suitable screen therefore will determine compounds that can reverse the effect of lithium as measured by the accumulation of CDP-DAG in carbachol-stimulated neurons. Another means of screening for drugs that reverse the effect of lithium on PIns recycling is to screen for drugs that alter the supply of intracellular inositol in neurons by labelling them with titriated inositol and analysing the patterns of cytosolic inositol phosphates and membrane phoshoinositides: the novelty of this approach is to use cortical neurons rather than non-neural cells or neural cell lines. […] Additional known tricyclics such as protriptyline that could also be tested. […] The same assays can be used to test for other compounds that stimulate PIns cycling including other inhibitors of prolyl oligopeptidase activity.
The accumulation of tritiated CDP-DAG in the membrane fraction after loading cells with ^3H-cytidine or the incorporation of ^32P orthophosphate into membrane phospholipids can be used to assess changes in synthetic patterns in the presence or absence of compounds needing to be tested.

[2] = tested on: sensory neuron growth cones; experiment: growth cone collapse / morphology in cultured neurons; assay type: cell-based
Description: I used the growth cones as a model system for assessing changes in intracellular signalling events in response to drugs: The growth cones have some properties in common with presynaptic nerve terminals in the brain. I argued that, if the signalling changes we see in the growth cones of cultured neurons also occur in mature brain synapses in mood-related circuits, then these changes in neuronal signalling in response to the drugs would very likely affect synaptic transmission and thus also affect mood.
Another method of screening for suitable drugs for the prophylactic treatment of bipolar disorder is to look for compounds that have dual effects on the morphology of growth cones. Suitable compounds are those that can inhibit the collapse of growth cones in a way that is reversed by increasing extracellular inositol to 3 mM as well as reverse the effects of 20 μM carbamazepine or 3 mM valproic acid on the collapse of growth cones. Lamotrigine has such properties.

HMIT = settings: compared with SMIT; cited from earlier work
[3] = in vivo; cited from earlier work

NC(=O)N1c2ccccc2C=Cc2ccccc21 [carbamazepine]
effect on prolyl oligopeptidase proteolytic activity (prolyl oligopeptidase): Only valproic acid inhibited the enzyme
effect on collapse of sensory neuron growth cones and growth cone area [1]: inhibit the collapse of sensory neuron growth cones and increase growth cone area

CNCCCN1c2ccccc2CCc2ccccc21 [desipramine]
effect on prolyl oligopeptidase proteolytic activity (prolyl oligopeptidase): Only valproic acid inhibited the enzyme
concentrations at which the antidepressants act on the PIns cycle (cortical neurons): micromolar

CNCCC(Oc1ccc(C(F)(F)F)cc1)c1ccccc1 (stereo not drawn) [fluoxetine]
effect on prolyl oligopeptidase proteolytic activity (prolyl oligopeptidase): Only valproic acid inhibited the enzyme
concentrations at which the antidepressants act on the PIns cycle (cortical neurons): micromolar
reversal of the inhibitory effects of mood stabilizers on the PIns cycle (cortical neurons; cycle first perturbed with lithium, valproic acid or carbamazepine): can reverse the inhibitory effects of lithium, valproic acid and carbamazepine on the PIns cycle

Nc1nnc(-c2cccc(Cl)c2Cl)c(N)n1 [lamotrigine]
reversal of the action of carbamazepine or valproic acid on the growth cones ([2]; 20 μM carbamazepine or 3 mM valproic acid): can reverse the action of either carbamazepine or valproic acid on the growth cones
effect on collapse of growth cones ([2]; compound alone): inhibits the collapse of growth cones
reversal of the growth cone effect by inositol ([2]; increased extracellular inositol (3 mM)): reversed by increasing the extracellular concentration of inositol

O=C(CCc1ccc(O)cc1)c1c(O)cc(O)cc1O [phloretin]
strength of HMIT inhibition (HMIT): weak inhibitors of HMIT

CN1c2ccccc2C(NCCCCCCC(=O)O)c2ccc(Cl)cc2S1(=O)=O (stereo not drawn) [tianeptine]
effective doses in the 3H-CDP-DAG assay (cortical neurons; abolition of lithium-induced accumulation, carbachol-stimulated neurons): 10^−6-10^−5 M
effect on lithium-induced accumulation of 3H-CDP-DAG (cortical neurons; carbachol-stimulated neurons, in presence of lithium): abolished the lithium-induced accumulation
effect alone in the 3H-CDP-DAG assay (cortical neurons; compound alone): no effect alone

CCCC(CCC)C(=O)O [valproic acid]
effect on prolyl oligopeptidase proteolytic activity (prolyl oligopeptidase): inhibited the enzyme
Ki (prolyl oligopeptidase; read-out: Ki for direct inhibition of PO): ~1000 µM
effect on collapse of sensory neuron growth cones and growth cone area [1]: inhibit the collapse of sensory neuron growth cones and increase growth cone area
therapeutic blood levels [3]: 0.3 to 0.7 mM
